Experiment [1] deals with T1, wild-type Androgen Receptor (AR-wt) (Homo sapiens (Human), UniProt P10275). Description: LNCaP-AR-wt ANT reporter assay (antagonist mode). In kind it is cell-based. The following applies: for Emax: read-out: LNCaP-AR-wt ANT MAX % Inh; for IC50 / LNCaP-AR-wt ANT pIC50: pIC50 = −Log10(IC50 in Molar); for IC50: read-out: LNCaP-AR-wt ANT pIC50 (converted).
Experiment [2] concerns the target T1, wild-type Androgen Receptor (AR-wt). Put plainly: LNCaP-AR-wt AG reporter assay (agonist mode). In kind it is cell-based. As to conditions: for Emax: read-out: LNCaP-AR-wt AG MAX % Stim; for EC50: read-out: LNCaP-AR-wt AG pEC50 (converted).
Experiment [3] concerns the target T2, F876L mutant Androgen Receptor (AR-F876L) (Homo sapiens (Human), UniProt P10275, F877L). Put plainly: LNCaP-AR-F876L ANT reporter assay (antagonist mode). The class given is cell-based. The following applies: for Emax: read-out: LNCaP-AR-F876L ANT MAX % Inh; for IC50 / LNCaP-AR-F876L ANT pIC50: pIC50 = −Log10(IC50 in Molar); for IC50: read-out: LNCaP-AR-F876L ANT pIC50 (converted).

Experiment [4] deals with T2, F876L mutant Androgen Receptor (AR-F876L). Put plainly: LNCaP-AR-F876L AG reporter assay (agonist mode). In kind it is cell-based. As to conditions: for Emax: read-out: LNCaP-AR-F876L AG MAX % Stim; for EC50: read-out: LNCaP-AR-F876L AG pEC50 (converted).
A further experiment concerns rGABA-gated Cl− channel. Description: GABA-Gated Cl Channel Antagonist Radioligand Binding Assay. More on the design: species or system rat. As to conditions: 10 μM single point, [35S]-TBPS, cerebral cortex membrane homogenates. The method, boiled down:
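Rat cerebral cortex membranes (120 μg protein) incubated 120 min at 22° C with 3 nM […] in 50 mM Na2HPO4/KH2PO4 pH 7.4, 500 mM NaCl; nonspecific binding defined with 20 μM picrotoxinin. Bound label counted after filtration; values are percent inhibition of specific binding at 10 μM compound.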

The mark [5] stands for this setting: antagonist mode, maximum % inhibition of R1881 control response over tested concentration range.
Setting [6] is: agonist mode, maximum % stimulation over tested concentration range.
Where [7] appears, read: agonist mode, pEC50 = −Log10(EC50 in Molar).
The mark [8] stands for this setting: maximum % inhibition of R1881 control response over the tested concentration range.
The mark [9] stands for this setting: maximum % stimulation (agonist response) over the tested concentration range.

Structures are written as SMILES.

T2 sequence (P10275 whole entry F877L): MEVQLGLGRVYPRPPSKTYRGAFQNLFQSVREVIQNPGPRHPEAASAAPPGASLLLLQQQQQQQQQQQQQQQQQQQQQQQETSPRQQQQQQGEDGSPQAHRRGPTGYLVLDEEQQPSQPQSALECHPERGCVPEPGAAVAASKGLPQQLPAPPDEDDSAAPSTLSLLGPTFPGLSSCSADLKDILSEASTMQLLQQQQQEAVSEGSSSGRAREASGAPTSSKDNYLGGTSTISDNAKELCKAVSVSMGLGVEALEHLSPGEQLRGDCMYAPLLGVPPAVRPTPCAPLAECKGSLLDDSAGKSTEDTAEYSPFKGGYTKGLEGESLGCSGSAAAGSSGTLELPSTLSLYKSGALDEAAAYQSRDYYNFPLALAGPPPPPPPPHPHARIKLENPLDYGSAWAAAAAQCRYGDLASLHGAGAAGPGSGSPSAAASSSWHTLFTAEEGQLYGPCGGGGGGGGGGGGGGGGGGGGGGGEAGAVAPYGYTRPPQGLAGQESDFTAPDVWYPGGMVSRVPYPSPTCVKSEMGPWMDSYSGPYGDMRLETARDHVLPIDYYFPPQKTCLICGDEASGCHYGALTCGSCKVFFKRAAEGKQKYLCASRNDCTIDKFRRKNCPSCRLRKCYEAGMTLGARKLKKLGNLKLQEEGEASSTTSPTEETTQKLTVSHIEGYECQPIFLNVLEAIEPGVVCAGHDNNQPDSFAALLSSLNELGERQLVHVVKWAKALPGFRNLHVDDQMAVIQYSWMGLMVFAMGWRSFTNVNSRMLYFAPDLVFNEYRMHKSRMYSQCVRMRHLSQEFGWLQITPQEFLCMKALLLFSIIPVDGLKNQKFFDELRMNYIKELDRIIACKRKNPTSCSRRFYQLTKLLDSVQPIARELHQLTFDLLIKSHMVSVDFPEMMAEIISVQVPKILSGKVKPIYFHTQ
T1 sequence (P10275 whole entry): as the sequence (P10275 whole entry F877L) above, with L877F counted along it

`N#Cc1ncc(N2C(=O)C3(CCC3)N(c3ccc(CN4CCNCC4)cc3)C2=S)cc1Cl` [Cpd 207, 3-chloro-5-[5-oxo-8-[4-(piperazin-1-ylmethyl)phenyl]-7-thioxo-6,8-diazaspiro[3.4]octan-6-yl]pyridine-2-carbonitrile]: the Emax stood at 101% in experiment [1] (setting [5]), 0% in experiment [2] (setting [6]), 100% in experiment [3] (setting [5]) and 0% in experiment [4] (setting [6]). Besides, the values for the IC50 in experiment [1] (antagonist mode) and in experiment [3] (antagonist mode) were 407 nM and 380 nM, respectively. Moreover, the EC50 in experiment [2] (setting [7]) and in experiment [4] (setting [7]) was > 15100 nM throughout. Moreover, the “rGABA-gated Cl− channel % inh @10 μM” value in the experiment with rGABA-gated Cl− channel is 27.9%.
Regarding `Cc1cc(N2C(=O)C3(CCC3)N(c3ccc(OC4CCN(CC#N)CC4)nc3)C2=S)cnc1C#N` [Cpd 90, 5-[8-[6-[[1-(cyanomethyl)-4-piperidyl]oxy]-3-pyridyl]-5-oxo-7-thioxo-6,8-diazaspiro[3.4]octan-6-yl]-3-methyl-pyridine-2-carbonitrile], the IC50 is 89.1 nM in experiment [1] (antagonist mode) and 67.6 nM in experiment [3] (antagonist mode). Also, the Emax in experiment [1] (setting [8]) was 99.7%; in experiment [2] (setting [9]), 0.6%; in experiment [3] (setting [8]), 99.3%; in experiment [4] (setting [9]), 0.9%. Also, the EC50 in experiment [2] (setting [7]) and in experiment [4] (setting [7]) was > 15100 nM in each case. Further, the “rGABA-gated Cl− channel % inh @10 μM” value in the experiment on rGABA-gated Cl− channel is 20.8%.
Consider `COCCN1CCC(Oc2ccc(N3C(=S)N(c4cnc(C#N)c(C)c4)C(=O)C34CCC4)cn2)CC1` [Cpd 98, 5-[8-[6-[[1-(2-methoxyethyl)-4-piperidyl]oxy]-3-pyridyl]-5-oxo-7-thioxo-6,8-diazaspiro[3.4]octan-6-yl]-3-methyl-pyridine-2-carbonitrile], for which the IC50 in experiment [1] (antagonist mode) is 46.8 nM; in experiment [3] (antagonist mode) it was 20.9 nM. Further, the Emax in experiment [1] (setting [8]) amounted to 101%; in experiment [2] (setting [9]), 0.3%; in experiment [3] (setting [8]) it was 100%; in experiment [4] (setting [9]), 0.1%. For the same molecule, the EC50 in experiment [2] (setting [7]) and in experiment [4] (setting [7]) was > 15100 nM each time. Further, the “rGABA-gated Cl− channel % inh @10 μM” value in the experiment on rGABA-gated Cl− channel is −7.6%.
`COc1cc(N2C(=O)C3(CCC3)N(c3ccc4c(cnn4C4CCN(CCO)CC4)c3)C2=S)cnc1C#N` [Cpd 225, 5-[8-[1-[1-(2-hydroxyethyl)-4-piperidyl]indazol-5-yl]-5-oxo-7-thioxo-6,8-diazaspiro[3.4]octan-6-yl]-3-methoxy-pyridine-2-carbonitrile]: the Emax in experiment [1] (setting [5]) amounted to 101%; in experiment [2] (setting [6]) it was 0.4%; in experiment [3] (setting [5]), 100%; in experiment [4] (setting [6]) it was 0.5%. Further, the IC50 in experiment [1] (antagonist mode) is 339 nM; in experiment [3] (antagonist mode), 209 nM. Moreover, the EC50 in experiment [2] (setting [7]) and in experiment [4] (setting [7]) was > 15100 nM each time. Moreover, in the experiment with rGABA-gated Cl− channel, the “rGABA-gated Cl− channel % inh @10 μM” value amounted to 18.6%.
For `N#Cc1ncc(N2C(=O)C3(CCC3)N(c3ccc(O[C@@H]4CCN[C@H](C(F)(F)F)C4)cc3)C2=S)cc1C(F)(F)F` (racemic) [Cpd 101, 5-[5-oxo-7-thioxo-8-[4-[[(2SR,4RS)-2-(trifluoromethyl)-4-piperidyl]oxy]phenyl]-6,8-diazaspiro[3.4]octan-6-yl]-3-(trifluoromethyl)pyridine-2-carbonitrile], the IC50 in experiment [1] (antagonist mode) is 155 nM; in experiment [3] (antagonist mode) it was 123 nM. Besides, the Emax was 102% in experiment [1] (setting [8]), 0.3% in experiment [2] (setting [9]), 98.3% in experiment [3] (setting [8]) and 0.7% in experiment [4] (setting [9]). Moreover, the EC50 in experiment [2] (setting [7]) and in experiment [4] (setting [7]) was > 15100 nM throughout. Also, the “rGABA-gated Cl− channel % inh @10 μM” value in the experiment on rGABA-gated Cl− channel was determined as 83.9%.
On to `N#Cc1ncc(N2C(=O)C3(CCC3)N(c3ccc(OC4C5CCC4CNC5)cc3)C2=S)cc1C(F)(F)F` (stereo not drawn) [Cpd 138, 5-[8-[4-(3-azabicyclo[3.2.1]octan-8-yloxy)phenyl]-5-oxo-7-thioxo-6,8-diazaspiro[3.4]octan-6-yl]-3-(trifluoromethyl)pyridine-2-carbonitrile], for which the IC50 was 427 nM in experiment [1] (antagonist mode) and 269 nM in experiment [3] (antagonist mode). In addition, the Emax in experiment [1] (setting [8]) is 103%; in experiment [2] (setting [9]), -0.1%; in experiment [3] (setting [8]) it was 100%; in experiment [4] (setting [9]) it was 0.1%. The EC50 in experiment [2] (setting [7]) and in experiment [4] (setting [7]) was > 15100 nM throughout. Moreover, the “rGABA-gated Cl− channel % inh @10 μM” value in the experiment on rGABA-gated Cl− channel came out at 35.6%.
As for `Cl.N#Cc1ncc(N2C(=O)C3(CCC3)N(c3cnc(OC4CCNCC4)nc3)C2=S)cc1C(F)(F)F` [Cpd 141, 5-{8-Oxo-5-[2-(piperidin-4-yloxy)-pyrimidin-5-yl]-6-thioxo-5,7-diaza-spiro[3.4]oct-7-yl}-3-trifluoromethyl-pyridine-2-carbonitrile], in experiment [1] (antagonist mode), the “LNCaP-AR-wt ANT pIC50” value came out at 6.30. Further, the Emax in experiment [1] (setting [8]) was 84.9%; in experiment [2] (setting [9]), -0.1%; in experiment [3] (setting [8]) it was 66.8%; in experiment [4] (setting [9]) it was 0%. Further, the EC50 in experiment [2] (setting [7]) and in experiment [4] (setting [7]) was > 15100 nM in each case. Also, the “LNCaP-AR-F876L ANT pIC50” value in experiment [3] (antagonist mode) is reported as 6.51. In the experiment on rGABA-gated Cl− channel, the “rGABA-gated Cl− channel % inh @10 μM” value is 56.1%.
For the molecule `CCOC(=O)N1CCC(CNC(=O)c2ccc(N3C(=S)N(c4cnc(C#N)c(C(F)(F)F)c4)C(=O)C34CCC4)cc2)CC1` [Cpd 49, ethyl 4-[[[4-[6-[6-cyano-5-(trifluoromethyl)-3-pyridyl]-5-oxo-7-thioxo-6,8-diazaspiro[3.4]octan-8-yl]benzoyl]amino]methyl]piperidine-1-carboxylate], the IC50 in experiment [1] (antagonist mode) is 105 nM; in experiment [3] (antagonist mode) it was 56.2 nM. For the same molecule, the Emax in experiment [1] (setting [8]) stood at 101%; in experiment [2] (setting [9]), 0.3%; in experiment [3] (setting [8]), 99.5%; in experiment [4] (setting [9]), 0.4%. Besides, the EC50 in experiment [2] (setting [7]) and in experiment [4] (setting [7]) was > 15100 nM throughout. Moreover, the “rGABA-gated Cl− channel % inh @10 μM” value with rGABA-gated Cl− channel amounted to 86.4%.
Consider `C#CCN1CCC(Oc2ccc(N3C(=S)N(c4cnc(C#N)c(C(F)(F)F)c4)C(=O)C34CCC4)cc2)CC1` [Cpd 107, 5-[5-oxo-8-[4-[(1-prop-2-ynyl-4-piperidyl)oxy]phenyl]-7-thioxo-6,8-diazaspiro[3.4]octan-6-yl]-3-(trifluoromethyl)pyridine-2-carbonitrile], for which the IC50 in experiment [1] (antagonist mode) was 22.9 nM; in experiment [3] (antagonist mode), 24.5 nM. Further, the Emax in experiment [1] (setting [8]) is 101%; in experiment [2] (setting [9]) it was 0.5%; in experiment [3] (setting [8]) it was 97.5%; in experiment [4] (setting [9]), 1.9%. The EC50 in experiment [2] (setting [7]) and in experiment [4] (setting [7]) was > 15100 nM each time. For the same molecule, the “rGABA-gated Cl− channel % inh @10 μM” value in the experiment with rGABA-gated Cl− channel is reported as 87.2%.
As to `N#Cc1ncc(N2C(=O)C3(CCC3)N(c3ccc(O[C@H]4C[C@H]5CC[C@@H](C4)N5)cc3)C2=S)cc1C(F)(F)F` [Cpd 29, 5-[8-[4-[[(1R,3r, 5S)-8-azabicyclo[3.2.1]octan-3-yl]oxy]phenyl]-5-oxo-7-thioxo-6,8-diazaspiro[3.4]octan-6-yl]-3-(trifluoromethyl)pyridine-2-carbonitrile], the “LNCaP-AR-wt ANT pIC50” value in experiment [1] (antagonist mode) is on record as 6.05. The Emax in experiment [1] (setting [8]) is 91.5%; in experiment [2] (setting [9]), 1.5%; in experiment [3] (setting [8]), 101%; in experiment [4] (setting [9]), 3.4%. The “LNCaP-AR-wt AG pEC50” value in experiment [2] (setting [7]) is <4.82. The “LNCaP-AR-F876L ANT pIC50” value in experiment [3] (antagonist mode) worked out at 6.40. The “LNCaP-AR-F876L AG pEC50” value in experiment [4] (setting [7]) was <4.82. The “rGABA-gated Cl− channel % inh @10 μM” value with rGABA-gated Cl− channel came to 39.9%.
Take `N#Cc1ncc(N2C(=O)C3(CCC3)N(c3ccc(CC4CCC(N)CC4)cc3)C2=S)cc1C(F)(F)F` (stereo not drawn) [Cpd 233, 5-[8-[4-[(4-aminocyclohexyl)methyl]phenyl]-5-oxo-7-thioxo-6,8-diazaspiro[3.4]octan-6-yl]-3-(trifluoromethyl)pyridine-2-carbonitrile]: the Emax in experiment [1] (setting [5]) was 108%; in experiment [2] (setting [6]), -0.2%; in experiment [3] (setting [5]), 103%; in experiment [4] (setting [6]) it was 0%. The IC50 in experiment [1] (antagonist mode) was 240 nM; in experiment [3] (antagonist mode), 186 nM. Further, the EC50 in experiment [2] (setting [7]) and in experiment [4] (setting [7]) was > 15100 nM in each case. In the experiment with rGABA-gated Cl− channel, the “rGABA-gated Cl− channel % inh @10 μM” value stood at 80.2%.
Regarding `CN1CCC(Oc2ccc(N3C(=S)N(c4cnc(C#N)c(C(F)(F)F)c4)C(=O)C34CCC4)cn2)CC1` [Cpd 1, 5-[8-[6-[(1-methyl-4-piperidyl)oxy]-3-pyridyl]-5-oxo-7-thioxo-6,8-diazaspiro[3.4]octan-6-yl]-3-(trifluoromethyl)pyridine-2-carbonitrile], the “LNCaP-AR-wt ANT pIC50” value in experiment [1] (antagonist mode) came to 6.94. The Emax in experiment [1] (setting [8]) was 101%; in experiment [2] (setting [9]), -0.1%; in experiment [3] (setting [8]) it was 101%; in experiment [4] (setting [9]), 0.1%. Moreover, the EC50 in experiment [2] (setting [7]) and in experiment [4] (setting [7]) was > 15100 nM each time. The “LNCaP-AR-F876L ANT pIC50” value in experiment [3] (antagonist mode) turned out to be 7.07. In the experiment with rGABA-gated Cl− channel, the “rGABA-gated Cl− channel % inh @10 μM” value stood at 6.3%.

These data come from patent publication US10981926B2 (Janssen Pharmaceutica NV, priority 2016, dated 2021).
